Source: publication PMC7595621, “Quorum sensing N-Acyl homoserine lactones are a new class of anti-schistosomal” (PLoS Neglected Tropical Diseases, 2020)
≈ marks a conversion by molar mass, not a printed value.

How the values were obtained:
S. mansoni schistosomula = assay: Screening of S. mansoni schistosomula (Roboworm, motility and phenotype); type: cell-based, Schistosoma mansoni; details: for Selectivity index, schistosomula motility: HepG2 CC50 / schistosomula motility EC50; for Selectivity index, schistosomula phenotype: HepG2 CC50 / schistosomula phenotype EC50; for EC50: Schistosoma mansoni, average across motility and phenotype, read-out: average EC50 for phenotype and motility, schistosomula; for concentrations at which schistosomula phenotype was affected / concentrations at which schistosomula motility was affected: titration 10 to 0.625 μM; for concentrations at which schistosomula phenotype was affected: hit below -0.15; for concentrations at which schistosomula motility was affected: hit below -0.35
Method: Biomphalaria glabrata (NMRI and the previously described pigmented strains) snails infected with S. mansoni (Puerto Rican strain) were shed for 2 hrs under light at 26 °C. Cercariae were collected, mechanically transformed into schistosomula and subsequently prepared for high throughput screening (HTS) on the Roboworm platform as previously described. Schistosomula were cultured in Basch Media (composed of BME media, 10% M169 media, 0.5x MEM vitamins, 10% Schneider’s insect media, 15.6mM Hepes, 5% heat inactivated FBS, 2x Antibiotic/anti-mycotic (Sigma-Aldrich, UK) solution (final concentrations shown)).
EC50 values were calculated from the titrated concentrations by non-linear regression, after log transformation of concentrations and data normalization using GraphPad Prism 7.02.
Fig 2 Anti-schistosomula activity of the eight analogues compared to parent compound 1. […] Test plates were incubated at 37°C for 72 hrs in an atmosphere containing 5% CO2. At 72hrs, schistosomula were scored using the Roboworm platform for both motility (A) and phenotype (B). Any compound that induced a score of below -0.35 for motility (A) and -0.15 for phenotype (B) were considered a hit. Black squares indicate the most positive effect on motility or phenotype; grey scale from dark grey to lighter shades of grey indicates a progressive reduced compound efficacy; white squares indicate no effect on either phenotype or motility. Z´ values for this screen was 0.41741 for motility and 0.57275 for phenotype. (C) Phenotypes of schistosomula when treated with 10μM of each of the test compounds and controls.
Supplementary file pntd.0008630.s003.tif: S1 Fig Initial schistosomula screens of the 14 compounds and their intermediate analogues. […] Test plates were incubated at 37°C for 72 hrs in an atmosphere containing 5% CO2. At 72hrs, schistosomula were scored using the Roboworm platform for both motility and phenotype as previously described. A) Of the 14 compounds evaluated, two fell within the hit region. Z’ scores for motility and phenotype were 0.40079 and 0.56846 respectively. […] Z´ scores for motility and phenotype were 0.37864 and 0.47882 respectively. *Average EC50 value across motility and phenotype is presented for each compound. (TIF) Click here for additional data file.

S. aureus ATCC 29213 = assay: Broth microdilution MIC and IC50 determination, S. aureus; type: cell-based, Staphylococcus aureus; details: for MIC: ATCC29213, 24 h
Method: S. aureus ATCC 29213 and E. coli ATCC 25922 were cultured in Luria-Bertani (LB) medium at 37°C with aeration at 200 rpm for 24 hr, with all procedures performed in a biosafety level 2 (BSL2) cabinet. Stationary phase cultures were then used for minimum inhibitory concentration (MIC) determination using the broth microdilution method, in fresh LB medium, in a 96-well plate. All compounds were tested in triplicate using an initial bacterial concentration of 5.0 × 10^5 colony forming units (CFU)/mL at a final concentration of 125 mg/L (5% and 2.5% v/v methanol). Compounds with no visible growth at 125 mg/L were further evaluated with progressing dilutions. […] Dilutions were repeated in three independent experiments where the optical density (OD600) was measured in a Hidex plate spectrophotometer and absorbance data used for the calculation of an IC50 value. The IC50 value was obtained from a dose response titration (125–0.09 mg/L). Dose response curves were obtained by non-linear regression, after log transformation of concentrations and data normalization using GraphPad Prism 7.02.
As Compound 1 was structurally similar to N-acyl homoserine lactones, a compound class involved in bacterial quorum sensing, we decided to assess its antimicrobial activity and determine if enantiomer separation or lactone ring substitution would change this activity.

HepG2 cells = assay: Cell cytotoxicity assay (MTT); type: cell-based, human; details: 24 hr
Method: The cytotoxicity of each compound was assessed on human HepG2 cells as described previously [17]. Briefly, 2 x 10^4 cells/well were seeded in black walled 96-well microtiter plates (Fisher Scientific, Loughborough, UK) and incubated for 24 hr at 37°C in a humidified atmosphere containing 5% CO2. […] Following a further incubation for 24 hr, the MTT assay was performed as previously described [17, 27]. Dose response curves were obtained by non-linear regression, after log transformation of concentrations and data normalization using GraphPad Prism 7.02.

[1] = Staphylococcus aureus, 24 hr, no visible growth
[2] = Staphylococcus aureus, value in square brackets, 24 hr

SMILES | effect on schistosomula motility and phenotype metrics in initial screen (S. mansoni schistosomula; 10 μM, 72 hrs) | Selectivity index, schistosomula motility (S. mansoni schistosomula) | Selectivity index, schistosomula phenotype (S. mansoni schistosomula) | EC50 (S. mansoni schistosomula; 72 hrs) [µM] | concentrations at which schistosomula phenotype was affected (S. mansoni schistosomula; 72 hrs) | concentrations at which schistosomula motility was affected (S. mansoni schistosomula; 72 hrs) | good compound effect on schistosomula observed down to a concentration (S. mansoni schistosomula; titration of initial hits, S1B Fig) [µM] | MIC (S. aureus ATCC 29213; [1]) [µg/mL] | MIC (S. aureus ATCC 29213; [2]) [µM] | fold increase in HepG2 cytotoxicity in comparison to compound 1 (HepG2 cells) [fold] | S. aureus MIC (S. aureus ATCC 29213; 24 hr, no visible growth) [µg/mL] | IC50 (S. aureus ATCC 29213; Staphylococcus aureus, ATCC29213, Table 3, OD600, three independent experiments, 95% confidence interval in parentheses) [µg/mL]
O=C(CBr)NC1CCOC1=O (stereo not shown) [Compound 1, 2-bromo-N-(2-oxotetrahydrofuran-3-yl)acetamide] | negatively affected both schistosomula motility and phenotype metrics | 11.5 | 7.9 | 4.7 | from 10 to 1.25 | all concentrations tested | 1.25 | 125 | 563 |  |  | 
O=C(CBr)NC1CCSC1=O (stereo not shown) [Compound 3, 2-bromo-N-(2-oxotetrahydrothiophen-3-yl)acetamide] |  | 9.8 | 8.1 | 2.1 | all concentrations tested | all concentrations tested |  | 31.2 | 131 | 2.3 | 31.3 | 25.9 (≈ 109 µM)
